# Measurements from patent publication US20090203785A1, “METHOD AND PROCESS FOR PRODUCING YOUTHFUL-APPEARING, SMALL-PORED, AND SMOOTH SKIN” (priority 2002, published 2009).
# Tested on: acne vulgaris
# Assay: topical retinoic acid plus laser-induced explosion of carbon particles on the skin of a patient with acne vulgaris (FIG. 4)
# Assay type: in vivo
# Conditions: combination with exploding carbon particles (Q-switched laser); after first six months of treatment; one patient
# Source text: In the first step 40, pre-treatment is initiated with topical retinoic acid applied to the skin at least twice per week. The concentration of retinoic acid in the topical formulation is between about 0.05% to 1% preferably about 0.1%. […] In the next step 41, a solution of carbon particles in baby oil is applied to the skin. The carbon particle-oil ratio may range from about 1:1 to 1:9, preferably 1:4, i.e., about 25 percent carbon particles suspended in about 75 percent oil by weight. In the next steps 42 and 43 a laser beam is scanned over the skin treated with the carbon particle solution so as to clean substantially all of the carbon particles from the skin surface by exploding or fracturing the carbon particles. This scanning process takes from about 2 to 10 minutes to complete on the face, usually about 4 minutes, exposing the carbon particles only to 1 or 2 pulses of laser light.
# The wave length of the radiation may range from about 800 nM to 1200 nM, preferably about 1064 nM. The frequency of the pulses from the laser range from about 1 to 20 per second, preferably, about 10 per second. The duration of each pulse ranges from about 0.001 to 1 microseconds, preferably about 0.1 microseconds. The fluence or exposure of the skin treated with the carbon particles ranges from about 1 to 3 J/cm^2. […]
smiles,measurement,value
CC1=C(/C=C/C(C)=C/C=C/C(C)=C/C(=O)O)C(C)(C)CCC1 [retinoic acid],state of the epidermis / stratum corneum after treatment,"leaving the epidermis intact and normal, with no removal of stratum corneum"
